Measured values as given in patent US20100227921A1, “AMINO ACID AND PEPTIDE CARBAMATE PRODRUGS OF […] USES THEREOF” (SHIRE LLC, priority 2009, published 2010).

Experiment: Stability of tapentadol valine carbamate in simulated gastric and intestinal fluids, water and pH 10 buffer
Format: physicochemical

## CC[C@H](c1cccc(OC(=O)N[C@H](C(=O)O)C(C)C)c1)[C@H](C)CN(C)C (racemic) [Tapentadol valine carbamate, 2-[3-(3-Dimethylamino-1-ethyl-2-methyl-propyl)-phenoxycarbonylamino]-3-methyl-butyric acid]
USP simulated gastric fluid pH 1.1, 2 h, 37° C., HPLC
  Simulated gastric fluid (pH 1.1): % remaining after 2 h/37° C.: 100%
USP simulated intestinal fluid pH 6.8, 2 h, 37° C., HPLC
  Simulated intestinal fluid (pH 6.8): % remaining after 2 h/37° C.: 100%
Distilled water pH 5.9, 2 h, 20° C.
  Distilled water (pH 5.9): % remaining after 2 h/20° C.: 100%
pH 10.0 buffer, 2 h, 20° C.
  pH 10.0 buffer: % remaining after 2 h/20° C.: 82%
Summary in words of Table 2
  stability under the conditions existing in the GI tract: stable
